Where two headings read alike, the source gives them in different places.
Molecular target: Human liver cathepsin D (Homo sapiens, UniProt P07339)
Assay: Assay 2: cathepsin D inhibition activity (non-cellular fluorometric assay)
Assay type: biochemical
Set-up: Human liver cathepsin D (Athens Research and Technology, Athens, GA); purchased Athens Research and Technology, Athens, GA
Experimental: A second non-cellular assay for determining in vitro aspartyl protease inhibitory activity utilizes a microtiter plate, where a suitable aspartyl protease, such as cathepsin D is added to each well together with controls. A suitable fluorometric substrate is added to each well. The resultant reaction mixture is allowed to react for a preselected time, e.g., 30 minutes. After enzyme activity is terminated, the substrate or its product may be determined fluorometrically and then the protease inhibition activity may be calculated based on the rates of substrate turnover. This assay is exemplified in Assay 2, below.
A fluorometric assay was adapted from the method disclosed by Murakami et al., (1981) Anal. Biochem. 110:232-239 for measuring renin activity. Human liver cathepsin D (Athens Research and Technology, Athens, GA) was diluted in assay buffer, 200mM NaOAc, pH 4.5, 150mM NaCl to 500 ng/mL and then 100 µL of this cathepsin D solution was added to each well of a 96 well plate with the exception of control wells which received just 100 µL of assay buffer. Compound stocks were prepared by dissolving an aspartyl protease inhibitor in DMSO for each concentration tested in the assay and then 5 µL of compound stock was added to each of the wells prepared above. Blank and enzyme control wells each received 5 µL of the DMSO vehicle.
Following a ten minute incubation at 25°C to allow enzyme/compound interaction, 5 µL of 500µM fluorometric substrate (Suc-Arg-Pro-Phe-His-Leu-Leu-Val-Try-AMC [SEQ ID NO:4], Bachem Biosciences, Philadelphia, PA) in DMSO was added per well to initiate the reaction. After incubation at 37°C for 30 minutes, cathepsin D activity was terminated by the addition of 100 µL per well of 400 mU/mL microsomal leucine aminopeptidase (EC 3.4.11.2, Sigma, St. Louis, MO) in 1M Tris-HCl, pH 8.0.
The plates were then analyzed in a fluorometer (CytoFluor 2350, Millipore, Bedford, MA) with an excitation wavelength of 360nm and an emission wavelength of 460nm, in order to check for background fluorescence due to test compounds. Following a two hour incubation at 37°C, to allow the aminopeptidase to release the fluorophore, 7-amido-4-methylcoumarin (AMC) from the products of cathepsin D cleavage, the plates were again analyzed in the fluorometer. In order to check for potential false positives, i.e., inhibitors of microsomal leucine aminopeptidase, residual aminopeptidase activity was monitored directly in each well by the addition of 20 µL/well of 2.5mM Leu-pNA (Bachem Biosciences, Philadelphia, PA) in 10% DMSO. Aminopeptidase activity was measured as an increase in the absorbance at 405nm in a UVmax microplate reader (Molecular Devices, Menlo Park, CA).
The compounds prepared in Examples 9, 12, 13, 20-23, 23A, 24, 30, 41-43, 45, and 48 were assayed at 10 µg/mL for cathepsin D inhibition activity using Assay 2. Cathepsin D activity was linear under these conditions and the results are expressed as percent inhibition of the control activity in Assay Table 2, below. All results presented are the mean and standard deviation of at least four replicate assays. Assay Table 2

[1] = compound at 10 µg/mL, percent inhibition of control activity, mean and standard deviation of at least four replicate assays

Human liver cathepsin D, sequence (P07339 169-412 limits assumed): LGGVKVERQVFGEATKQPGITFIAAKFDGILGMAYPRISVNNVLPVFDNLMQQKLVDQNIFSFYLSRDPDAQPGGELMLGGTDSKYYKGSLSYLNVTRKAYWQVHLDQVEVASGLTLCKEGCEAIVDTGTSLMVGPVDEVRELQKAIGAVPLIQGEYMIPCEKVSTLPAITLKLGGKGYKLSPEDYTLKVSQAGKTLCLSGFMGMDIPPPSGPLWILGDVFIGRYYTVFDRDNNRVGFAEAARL
Human liver cathepsin D, sequence (P07339 65-162 limits assumed): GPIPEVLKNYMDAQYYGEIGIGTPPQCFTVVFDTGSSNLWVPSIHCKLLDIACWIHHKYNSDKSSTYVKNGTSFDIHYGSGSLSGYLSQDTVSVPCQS

Row | SMILES | Cathepsin D Inhibition [1] [%] | also measured
1 | Cc1cccc2ccc(C(=O)N[C@@H](CC(N)=O)C(=O)N[C@@H](Cc3ccccc3)[C@H](O)Cc3ccccc3C(=O)NC(C)(C)C)nc12 [Example 9, [1S-(1R*,4R*,5S*)]-N-(1-(2-Amino-2-oxoethyl)-2-oxo-3-aza-4-phenylmethyl-5-hydroxy-6-(2-(1-t-butylamino-1-oxomethyl)phenyl)hexyl)-8-methylquinolin-2-yl carboxamide] |  | inhibition at 10 µg/mL: 44.4 ± 1.9%
2 | Cc1ccc(C(=O)C2NCCc3ccccc32)cc1C(=O)N[C@@H](Cc1ccccc1)[C@H](O)CN1C[C@H]2CCCC[C@H]2C[C@H]1C(=O)NC(C)(C)C (relative stereo) [Example 30, [3S-(3R*,4aR*,8aR*,2'S*,3'R*)]-2-[2'-Hydroxy-3'-phenylmethyl-4'-aza-5'-oxo-5'-(3''-[1''',2''',3''',4'''-tetrahydroisoquinolin-1'''-ylcarbonyl]-6''-methyl)phenyl]pentyl-decahydroisoquinoline-3-N-t-butylcarboxamide] | 69.2 ± 3.5 | 
3 | CC(C)C(NC(=O)C(Cc1cccc2ccccc12)NC(=O)OC(C)(C)C)C(=O)NC(Cc1ccccc1)C(O)Cc1ccccc1C(=O)NC(C)(C)C (stereo not drawn) [Example 24, [2R-(2R*,3S*,6S*,9R*)]-N-t-Butyl-2-[2-hydroxy-3-phenylmethyl-4,7-diaza-5,8-dioxo-6-(1-methylethyl)-9-N(t-butoxycarbonyl)amino-10-naphth-1-yl]decyl benzamide] | 92.7 ± 0.5 | 
4 | CC(C)C(NC(=O)C(Cc1cccc2ccccc12)NC(=O)OC(C)(C)C)C(=O)NC(Cc1ccccc1)C(O)Cc1ccccc1C(=O)NC(C)(C)C (stereo not drawn) [Example 23, [2R-(2R*,3S*,6S*,9S*)]-N-t-Butyl-2-[2-hydroxy-3-phenylmethyl-4,7-diaza-5,8-dioxo-6-(1-methylethyl)-9-N(t-butoxycarbonyl)amino-10-naphth-1-yl]decyl benzamide] |  | inhibition at 10 µg/mL [1]: 96.3 ± 0.9%

From patent publication EP0652009A1, “Identification and use of protease inhibitors” (ELI LILLY AND COMPANY, priority 1993, dated 1995)
